According to patent publication US9532962B2, “Medium-chain length fatty acids and glycerides as nephroprotection agents” (priority 2007, dated 2017):
“Also recorded” adds a separate entry of the source.

Columns and labels:
[1] = tested on: C57B1/6 mice; assay: Doxorubicin-induced nephrotoxicity model; assay type: in vivo; conditions: for histological kidney lesions score at the tubular level induced by doxorubicin / serum urea induced by doxorubicin: oral; for histological kidney lesions score: 10 mg/kg i.v. at day 0; for serum creatinine induced by doxorubicin: FIG. 9; for serum urea induced by doxorubicin: FIG. 10
Protocol: C57B1/6 mice (6-10 week-old) were treated with sodium caprate prophylacticly from day −3 to day 10 or treated therapeutically from day 1 to 10. Nephrotoxicity was induced by an intravenous injection of 10 mg/kg of doxorubicin at day 0, Serum creatinine and urea were monitored at day 4, 7 and 11.

[2] = tested on: 5/6 nephrectomized (Nx) rats; assay: Heart protection (blood pressure) in 5/6 nephrectomized (Nx) rat model; assay type: in vivo; conditions: RTBP 2000, FIG. 8
Protocol: (§1) Male 6 week-old Wistar rats were subjected to 5/6 nephrectomy or sham operations. Under ketamine anesthesia (60 to 100 mg/kg, i.p.), renal ablation was achieved by removing two-thirds of the left kidney followed by a right unilateral nephrectomy 7 days later. Sham rats underwent exposition of the kidneys and removal of the perirenal fat. Twenty-one days after the first operation, rats were assigned in the study if the serum creatinine was greater than 125 μmol/L indicating a dysfunction of the kidney. Animals that underwent the sham operation were given vehicle (saline) and were used as controls. Nx animals were divided in groups receiving the vehicle or sodium caprate. Saline or sodium caprate was given by gastric gavage once daily for 35 days. Serum creatinine was measured weekly in order to assess the severity of this end-stage renal disease model. Rats were sacrificed at day 63.

[3] = tested on: 5/6 nephrectomized (Nx) rats; assay: Kidney protection in 5/6 nephrectomized (Nx) rat model; assay type: in vivo, Wistar rats
Protocol: as §1

[4] = prophylactic (pre-doxorubicin) treatment
[5] = therapeutic (post-doxorubicin) treatment

SMILES | histological kidney lesions score at the tubular level induced by doxorubicin [1, 4] | protection of kidney against doxorubicin toxicity, histological micrographs ([1]; prophylactic treatment, 400×) | histological kidney lesions score at the tubular level induced by doxorubicin [1, 5] | protection of kidney against doxorubicin toxicity, histological micrographs ([1]; therapeutic treatment) | histological lesions in affected tubular regions (micrographs) ([1]; 10 mg/kg i.v. at day 0, 400×) | histological kidney lesions score ([1]; day 7 and 11, FIG. 11) | histological kidney lesions score ([1]; day 12, FIG. 13) | blood pressure [2] | serum creatinine induced by doxorubicin ([1]; prophylactic treatment day -3 to day 10, oral) | serum urea induced by doxorubicin ([1]; prophylactic treatment) | serum creatinine induced by doxorubicin ([1]; therapeutic treatment day 1 to 10, oral) | serum urea induced by doxorubicin ([1]; therapeutic treatment) | kidney structure (density, glomerulus and tubular structure), histological micrographs ([3]; 40×, compared to control Nx rats, FIG. 6) | fibrosis and necrosis of the kidney tissue, histological micrographs ([3]; 400×, glomerulus level, FIG. 7) | serum creatinine ([3]; compared to control Nx rats, FIG. 5) | urine creatinine ([3]; day 21 to day 42, FIG. 4) | animals showing reduction of initial serum creatinine concentration ([3]; sodium caprate-treated Nx rats, FIG. 2) [%]
CCCCCCCCCC(=O)OCC(COC(=O)CCCCCCCCC)OC(=O)CCCCCCCCC [tricaprin] | reduces the kidney lesions | protects kidney against doxorubicin toxicity | reduces the kidney lesions | protects kidney against doxorubicin toxicity |  |  |  |  |  |  |  |  |  |  |  |  | 
COc1cccc2c1C(=O)c1c(O)c3c(c(O)c1C2=O)C[C@@](O)(C(=O)CO)C[C@@H]3O[C@H]1C[C@H](N)[C@H](O)[C@H](C)O1 [doxorubicin, reference compound] |  |  |  |  | induces kidney cell apoptosis, fibrosis, sclerosis, and accumulation of proteins; also recorded: induces kidney cell apoptosis, fibrosis, sclerosis and accumulation of proteins | induces significant kidney lesions | induces significant kidney lesions |  |  |  |  |  |  |  |  |  | 
CCCCCCCCCC(=O)[O-].[Na+] [sodium caprate] | reduce the kidney lesions | protects kidney against doxorubicin toxicity | reduce the kidney lesions | protects kidney against doxorubicin toxicity |  |  |  | significant decrease | inhibits the increase of serum creatinine induced by doxorubicin to a similar level observed in control mice | inhibits the increase of serum urea induced by doxorubicin to a similar level observed in control mice | reduces the serum creatinine level | inhibits the increase of serum urea induced by doxorubicin to a similar level observed in control mice | more conserved | reduces fibrosis and necrosis | significant (p=0.00006) decrease | significant (p=0.0002) increase | 80
